# Data from ChEMBL document CHEMBL6083290, “Proline Analogues in Drug Design: Current Trends and Future Prospects” (J Med Chem, 2024).
# Starred links: 1 amine or outer side, 2 acyl side, 3 side chain; linkers in the order of their positions; H or OH if unused. Non-standard residues stand in square brackets, D forms with d. Residues, ends and D or L forms follow the SMILES beside them. ξ: configuration not given here. *: point of attachment. X3 = CC(C)C[C@H](N[*:1])[C@H](O)C[C@H](C(=O)[*:2])C(C)C; X2 = O=C(C1[C@@H](F)[C@@H](O)CN1[*:1])[*:2]; X1 = O=C(C1[C@H](F)[C@@H](O)CN1[*:1])[*:2]; ξPro(4R-OH) = O=C(O)C1C[C@@H](O)CN1; NHCH2(2-pyridyl) = c1ccc(CN*)nc1; αMeP = C[C@@]1(C(=O)O)CCCN1; Boc = CC(C)(C)OC(=O)*
# Key:
# [1] = molecular target: T1, Replicase polyprotein 1ab (Severe acute respiratory syndrome coronavirus 2, UniProt P0DTD1)
# Description: Inhibition of SARS-CoV-2 main protease
# [2] = Lipophilicity, logP of compound; details: octanol/water
# [3] = molecular target: T1, Replicase polyprotein 1ab; remark: listed apart in the source
# Description: Inhibition of SARS-CoV-2 main protease extracted from Escherichia coli BL21 (DE3) cells
# SARS-CoV-2 = test: microbe, parasite or virus in culture; details: Severe acute respiratory syndrome coronavirus 2, 2019-nCoV Muc-IMB-1, Vero C1008, 48 h
# Description: Antiviral activity against SARS-CoV-2 2019-nCoV Muc-IMB-1 infected in Vero E6 cells assessed as reduction in viral replication measured after 48 hrs by qRT-PCR analysis
# [4] = molecular target: Endothelial PAS domain-containing protein 1 (Homo sapiens, UniProt Q99814); test: Binding affinity to HIF-2alpha (unknown origin) assessed as dissociation constant
# [5] = Inhibition of Glutamate receptor (unknown origin)
# Renin = molecular target: T2, Renin (Homo sapiens, UniProt P00797); test: Inhibition of renin (unknown origin) using Arg-Glu(EDANS)-lle-His-Pro-Phe-His-Leu-Val-lle-His-Thr-Lys(dabcyl)-Arg as substrate incubated for 10 mins by fluorescence based assay
# T2 sequence (P00797 whole entry): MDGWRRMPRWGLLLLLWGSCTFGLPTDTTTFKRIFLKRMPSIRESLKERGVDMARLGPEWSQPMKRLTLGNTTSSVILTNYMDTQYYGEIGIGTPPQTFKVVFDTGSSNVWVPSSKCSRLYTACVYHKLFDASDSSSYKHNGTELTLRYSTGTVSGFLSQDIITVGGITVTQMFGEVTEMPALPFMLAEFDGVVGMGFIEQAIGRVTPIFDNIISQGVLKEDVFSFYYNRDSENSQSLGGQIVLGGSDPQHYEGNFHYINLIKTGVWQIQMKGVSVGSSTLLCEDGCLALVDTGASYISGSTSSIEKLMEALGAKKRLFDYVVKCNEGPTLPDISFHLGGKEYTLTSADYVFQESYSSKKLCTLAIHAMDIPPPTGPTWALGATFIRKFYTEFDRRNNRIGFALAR
# MCF7 = test: Antiproliferative activity against human MCF7 cells assessed as reduction in cell viability incubated for 48 hrs by MTT assay; details: MCF7, 48 h
# L-363 = test: Antiproliferative activity against human L-363 cells assessed as reduction in cell growth incubated for 72 hrs by MTT assay; details: L-363, 72 h
# [6] = molecular target: Phosphatidylinositol 4,5-bisphosphate 3-kinase catalytic subunit alpha isoform (Homo sapiens, UniProt P42336); test: Inhibition of PI3Kalpha (unknown origin) using PIP2 as substrate measured after 30 mins by TR-FRET assay
# [7] = Metabolic stability in rat liver microsomes assessed as half life
# in vitro = details: rat, plasma
# Sequence of Endothelial PAS domain-containing protein 1 (Q99814 whole entry, the tested form may be a part): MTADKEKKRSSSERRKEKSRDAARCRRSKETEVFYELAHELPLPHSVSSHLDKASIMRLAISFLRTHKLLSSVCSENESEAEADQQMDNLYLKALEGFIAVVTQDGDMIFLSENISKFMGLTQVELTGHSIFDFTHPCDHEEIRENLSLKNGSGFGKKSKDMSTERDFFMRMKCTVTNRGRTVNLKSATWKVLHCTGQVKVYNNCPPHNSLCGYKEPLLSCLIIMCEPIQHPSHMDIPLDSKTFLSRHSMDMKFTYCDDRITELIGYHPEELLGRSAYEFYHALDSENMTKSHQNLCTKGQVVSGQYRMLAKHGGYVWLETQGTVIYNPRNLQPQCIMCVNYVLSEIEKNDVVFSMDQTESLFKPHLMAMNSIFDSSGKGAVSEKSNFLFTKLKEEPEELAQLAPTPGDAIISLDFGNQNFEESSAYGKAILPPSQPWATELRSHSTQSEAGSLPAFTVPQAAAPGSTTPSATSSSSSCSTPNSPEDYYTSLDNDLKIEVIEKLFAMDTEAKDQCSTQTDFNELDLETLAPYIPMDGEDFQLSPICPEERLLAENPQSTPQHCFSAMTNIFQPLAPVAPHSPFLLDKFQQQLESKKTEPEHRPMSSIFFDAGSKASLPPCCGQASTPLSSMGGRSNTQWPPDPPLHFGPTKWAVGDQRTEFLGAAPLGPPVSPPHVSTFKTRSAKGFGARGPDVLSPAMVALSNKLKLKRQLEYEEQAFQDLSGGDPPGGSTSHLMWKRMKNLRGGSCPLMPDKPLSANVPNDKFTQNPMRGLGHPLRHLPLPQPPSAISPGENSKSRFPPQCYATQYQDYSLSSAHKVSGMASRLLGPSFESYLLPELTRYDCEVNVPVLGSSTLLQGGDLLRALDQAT
# Sequence of Phosphatidylinositol 4,5-bisphosphate 3-kinase catalytic subunit alpha isoform (P42336 whole entry, canonical isoform): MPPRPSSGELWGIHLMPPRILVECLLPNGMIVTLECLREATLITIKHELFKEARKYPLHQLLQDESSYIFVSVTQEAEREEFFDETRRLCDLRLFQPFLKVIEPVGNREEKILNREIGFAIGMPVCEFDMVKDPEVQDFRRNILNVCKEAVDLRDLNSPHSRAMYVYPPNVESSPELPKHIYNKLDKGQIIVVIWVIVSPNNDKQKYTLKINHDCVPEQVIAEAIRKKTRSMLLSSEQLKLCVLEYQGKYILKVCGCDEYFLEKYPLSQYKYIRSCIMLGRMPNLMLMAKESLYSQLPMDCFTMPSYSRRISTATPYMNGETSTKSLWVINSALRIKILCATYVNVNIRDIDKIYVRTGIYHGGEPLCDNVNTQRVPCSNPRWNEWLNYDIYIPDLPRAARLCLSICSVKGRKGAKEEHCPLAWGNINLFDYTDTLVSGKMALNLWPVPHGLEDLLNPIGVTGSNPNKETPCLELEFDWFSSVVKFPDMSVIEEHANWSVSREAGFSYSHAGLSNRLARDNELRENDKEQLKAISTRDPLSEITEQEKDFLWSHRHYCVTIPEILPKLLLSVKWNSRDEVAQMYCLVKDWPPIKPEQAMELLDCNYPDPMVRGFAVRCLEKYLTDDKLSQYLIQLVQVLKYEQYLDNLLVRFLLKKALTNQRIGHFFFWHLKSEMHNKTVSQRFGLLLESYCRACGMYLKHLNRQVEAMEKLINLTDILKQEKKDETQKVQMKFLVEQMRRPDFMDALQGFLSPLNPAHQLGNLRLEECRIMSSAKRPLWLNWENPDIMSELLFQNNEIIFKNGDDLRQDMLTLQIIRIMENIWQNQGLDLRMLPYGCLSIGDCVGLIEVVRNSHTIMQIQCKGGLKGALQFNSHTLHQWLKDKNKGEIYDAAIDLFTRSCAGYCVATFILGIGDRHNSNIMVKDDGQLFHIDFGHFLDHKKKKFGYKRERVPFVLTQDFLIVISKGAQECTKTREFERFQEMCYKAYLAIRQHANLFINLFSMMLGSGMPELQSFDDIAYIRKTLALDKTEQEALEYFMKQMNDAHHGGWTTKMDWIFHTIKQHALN
structure (smiles),measurement,setting,value
COc1ccc2nccc(C(=O)NCC(=O)N3CC(F)(F)C[C@H]3C#N)c2c1,IC50,[1],9 nM
Cc1c(COc2cc(OCc3cccc(C#N)c3)c(CN3C[C@H](O)C[C@@H]3C(=O)O)cc2Cl)cccc1-c1ccc2c(c1)OCCO2,IC50,[1],10.9 nM
COc1ccc(/C=C/C(=O)N2C[C@@H](NC(=O)c3cccnc3)C[C@H]2C(=O)NO)cc1OC,logP,[2],0.1
same,IC50,[3],9 nM
CC(C)(C)[C@H](NC(=O)C(F)(F)F)C(=O)N1C[C@H]2[C@@H]([C@H]1C(=O)N[C@H](C#N)C[C@@H]1CCNC1=O)C2(C)C,EC50,SARS-CoV-2,5600 nM
COc1cccc2[nH]c(C(=O)N[C@@H](CC(C)C)C(=O)N[C@H](C#N)C[C@@H]3CCNC3=O)cc12,EC50,SARS-CoV-2,1200 nM
COc1cccc2[nH]c(C(=O)N3C[C@H]4[C@@H]([C@H]3C(=O)N[C@@H](C[C@@H]3CCNC3=O)C(=O)c3nc5ccccc5s3)C4(C)C)cc12,EC50,SARS-CoV-2,1400 nM
CC(=O)N[C@@H](C(=O)N1C[C@H](O)[C@H](F)C1C(=O)NCc1ccc(-c2scnc2C)cc1)C(C)(C)C (some centres not stated),Kd,[4],0.24 nM
C[C@@H](C(=O)N[C@H](C(=O)N1C[C@H](OC(F)F)C[C@H]1C(=O)N[C@H](C#N)C[C@@H]1CCNC1=O)C(C)(C)C)N(C)C(=O)CCCCCNc1cccc2c1C(=O)N(C1CCC(=O)NC1=O)C2=O (some centres not stated),IC50,[3],182 nM
CC(=O)N[C@@H](C(=O)N1C[C@H](O)[C@@H](F)C1C(=O)NCc1ccc(-c2scnc2C)cc1)C(C)(C)C (some centres not stated),Kd,[4],3.1 nM
O=C(O)[C@@H]1C[C@H]2C[C@H](CN3CC(F)(F)C[C@H]3C(=O)O)CC[C@H]2CN1,IC50,[5],45 nM
CC[C@H](C)[C@H](NC(=O)[C@@H](C[C@@H](O)[C@H](CC(C)C)NC(=O)[C@H](Cc1c[nH]cn1)NC(=O)[C@H](Cc1ccccc1)NC(=O)[C@]1(C)CCCN1C(=O)OC(C)(C)C)C(C)C)C(=O)NCc1ccccn1 (Boc-[αMeP]FH[X3]I-{NHCH2(2-pyridyl)}),IC50,Renin,2 nM
CC[C@H](C)[C@H](NC(=O)[C@H](CCC(=O)O)NC(=O)[C@H](Cc1ccccc1)NC(=O)[C@H](CC(=O)O)NC(=O)[C@H](CC(=O)O)NC(=O)[C@H](CC(=O)O)NC(=O)[C@H](CCSC)NC(=O)[C@@H]1CCCN1C(=O)[C@H](Cc1ccc(O)cc1)NC(=O)C1[C@H](F)[C@@H](O)CN1C(=O)[C@H](C)NC(=O)[C@H](CC(C)C)NC(=O)[C@H](C)NC(=O)[C@H](CCC(=O)O)NC(=O)[C@@H](N)CC(=O)O)C(=O)N[C@@H](CCCNC(=N)N)C(=O)N[C@@H](CO)C(=O)N[C@@H](Cc1ccccc1)C(=O)O (some centres not stated) (H-DEALA[X1]YPMDDDFEIRSF-OH),Kd,[4],52 nM
CC[C@H](C)[C@H](NC(=O)[C@H](CCC(=O)O)NC(=O)[C@H](Cc1ccccc1)NC(=O)[C@H](CC(=O)O)NC(=O)[C@H](CC(=O)O)NC(=O)[C@H](CC(=O)O)NC(=O)[C@H](CCSC)NC(=O)[C@@H]1CCCN1C(=O)[C@H](Cc1ccc(O)cc1)NC(=O)C1[C@@H](F)[C@@H](O)CN1C(=O)[C@H](C)NC(=O)[C@H](CC(C)C)NC(=O)[C@H](C)NC(=O)[C@H](CCC(=O)O)NC(=O)[C@@H](N)CC(=O)O)C(=O)N[C@@H](CCCNC(=N)N)C(=O)N[C@@H](CO)C(=O)N[C@@H](Cc1ccccc1)C(=O)O (some centres not stated) (H-DEALA[X2]YPMDDDFEIRSF-OH),Kd,[4],12 nM
CC[C@H](C)[C@H](NC(=O)[C@H](CCC(=O)O)NC(=O)[C@H](Cc1ccccc1)NC(=O)[C@H](CC(=O)O)NC(=O)[C@H](CC(=O)O)NC(=O)[C@H](CC(=O)O)NC(=O)[C@H](CCSC)NC(=O)[C@@H]1CCCN1C(=O)[C@H](Cc1ccc(O)cc1)NC(=O)C1C[C@@H](O)CN1C(=O)[C@H](C)NC(=O)[C@H](CC(C)C)NC(=O)[C@H](C)NC(=O)[C@H](CCC(=O)O)NC(=O)[C@@H](N)CC(=O)O)C(=O)N[C@@H](CCCNC(=N)N)C(=O)N[C@@H](CO)C(=O)N[C@@H](Cc1ccccc1)C(=O)O (stereo partly drawn) (H-DEALA[ξPro(4R-OH)]YPMDDDFEIRSF-OH),Kd,[4],11 nM
Cc1nc(NC(=O)N2CCC[C@H]2C(N)=O)sc1-c1ccnc(C(C)(C)C(F)(F)F)c1 [ALPELISIB],IC50,MCF7,1200 nM
same,IC50,L-363,170 nM
O=C(/C=C/c1cccc(S(=O)(=O)Nc2ccccc2)c1)NO [BELINOSTAT],IC50,[6],2.9 nM
same,IC50,MCF7,1200 nM
same,IC50,L-363,170 nM
CS(=O)(=O)c1cncc(C(=O)N2[C@@H](C(=O)N[C@@H](c3cc(F)c(C(F)(F)F)cc3F)C3CC3)C[C@H]3C[C@H]32)c1 [NELUTROCTIV],half-life,[7],30 min
C[C@@]1(C(=O)N[C@@H](CCC(=O)O)C(=O)O)CCCN1C(=O)CN [TROFINETIDE] (H-Gly-[αMeP]-Glu-OH),half-life,in vitro,49 min
